According to patent US10226041B2, “Compositions and methods for improving the quality of processed sperm” (Inguran, LLC, priority 2011, dated 2019):

System: sex-sorted sperm cells
Assay: CASA post-thaw motility of sex sorted bull sperm treated with OSR
Format: cell-based, bovine
Parameters: key to BCF: beat cross frequency in Hz; key to ALH: lateral head displacement in μm; key to STR / LIN: percent; key to Motile: percent motile sperm; key to VAP / VSL / VCL: velocity in μm/s
Settings: 3 step
Excerpt: 5. Sperm Motility Evaluations by CASA. A comparison of viewing chambers and slides can be done in a variety of IVOS instruments, which for example only can be a Hamilton-Thorne IVOS (Hamilton-Thorne, Beverly, Mass.). Instrument settings: image capture; frames per second=60; number of frames=30; cell detection; minimum contrast=50; minimum cell size=5; defaults, cell size=5; cell intensity=50; progressive cells, path velocity=50 um/s; straightness ≥70%; slow cells (um/s); average path velocity (VAP, <30 um/s), straight-line velocity (VSL, <15 um/s). The CASA motility variables measured can be a percentage of total motile sperm (motile), percentage of progressively motile sperm (progressive), VAO, VSL, curvilinear velocity (VCL, um/s), average lateral head displacement (ALK, um) and the number of times the sperm head crosses the mean path/s (BCF, Hz), straight-line sperm motility (STR, %), and linear sperm motility (LIN, %). See for instance, Lenz, R W, et al., J Anim Sci (2011) 89:383-388, incorporated by reference herein in its entirety.
One set of semen from each bull was used as a control while to the remaining sets of semen samples were added vitamin B12, as the antioxidant, at respective concentrations of 0.5 mg/ml and 0.25 mg/ml. For each sample, the same concentration of vitamin B12 was added (i) during the staining process, and (ii) in the catch fluid of the collection vessel. […] Sperm samples were sorted in “High Purity” mode, and the collected sex-sorted sperm were extended with a cryoextender, which in some cases again contained the same concentration of vitamin B12 and the samples were frozen. Three hours after thawing (which is a standard time frame to conduct quality control assessments on sorted frozen thawed sperm samples) the thawed samples were put through CASA, a machine that provides various data on sperm including motility and progressive motility information.
In the tables below: VAP (average path velocity (μm/s)); VSL (straight-line velocity (μm/s)); VCL (curvilinear velocity (μm/s)); ALH (average lateral head displacement (μm)); BCF (the number of times the sperm head crosses the mean path/s in Hz); STR (percent straight-line sperm motility); LIN (percent linear sperm motility); PIA (percent intact acrosomes); motile (percent motile sperm); and progressive (percent progressively motile sperm).
There is no correlation with regard to randomly assigned names such as “Bull A.” Bull A from Example 5 is not the same bull as Bull A from Example 7.
In both cases the concentration of the vitamin B12 was 1 mg/ml. For all other bulls in the table below unless otherwise indicated, the concentration of vitamin B12 added was also 1 mg/ml.
In an additional experiment, motility and progressive motility were checked 3.75 hours after thawing a sex sorted semen sample treated with the antioxidant. The OSR was not added to the control sample. The semen sample was derived from a single bull. 0.25 mg/ml concentration of vitamin B12 was added to the test sample during the staining step, the collecting step (in the catch fluid of the collecting vessel) and in the cryoprotectant extender prior to freezing the sample.
[…] The OSR was not added to the control samples. The semen samples were derived from two Holstein bulls.

[1] = Holstein 0 hr post-thaw, .25 mg/ml
[2] = Holstein 0 hr post-thaw, .35 mg/ml
[3] = Holstein 0 hr post-thaw, .45 mg/ml
[4] = Holstein 3 hr post-thaw (1st block), .25 mg/ml
[5] = Holstein 3 hr post-thaw (1st block), .35 mg/ml
[6] = Holstein 3 hr post-thaw (1st block), .45 mg/ml
[7] = Holstein 3 hr post-thaw (2nd block), .25 mg/ml
[8] = Holstein 3 hr post-thaw (2nd block), .35 mg/ml
[9] = Holstein 3 hr post-thaw (2nd block), .45 mg/ml
[10] = Holstein 6 hr post-thaw (1st block), .25 mg/ml
[11] = Holstein 6 hr post-thaw (1st block), .35 mg/ml
[12] = Holstein 6 hr post-thaw (1st block), .45 mg/ml
[13] = Holstein 6 hr post-thaw (2nd block), .25 mg/ml
[14] = Holstein 6 hr post-thaw (2nd block), .35 mg/ml
[15] = Holstein 6 hr post-thaw (2nd block), .45 mg/ml
[16] = Jersey 0 hr post-thaw, .25 mg/ml
[17] = Jersey 0 hr post-thaw, .35 mg/ml
[18] = Jersey 0 hr post-thaw, .45 mg/ml
[19] = Jersey 3 hr post-thaw, .25 mg/ml
[20] = Jersey 3 hr post-thaw, .35 mg/ml
[21] = Jersey 3 hr post-thaw, .45 mg/ml

`O=C(O)CCC(=O)C(=O)O` [AKG, Alpha-ketoglutarate] was tested, and the ALH [1] was 8, the BCF [1] was 27 and the LIN [1] was 48. For the same compound, the Motile [1] was 91, the Prog [1] was 75 and the STR [1] was 82. The VAP [1] was 104, the VCL [1] was 185 and the VSL [1] was 81. For the same compound, the ALH [2] was 7, the BCF [2] was 29 and the LIN [2] was 51. The Motile [2] was 80, the Prog [2] was 65 and the STR [2] was 85. For the same compound, the VAP [2] was 94, the VCL [2] was 165 and the VSL [2] was 80. For the same compound, the ALH [3] was 7, the BCF [3] was 30 and the LIN [3] was 57. The Motile [3] was 86, the Prog [3] was 75 and the STR [3] was 89. It also gave a VAP [3] of 98, a VCL [3] of 162 and a VSL [3] of 88. It also gave an ALH [4] of 7, a BCF [4] of 26 and an LIN [4] of 45. For the same compound, the Motile [4] was 77, the Prog [4] was 60 and the STR [4] was 81. For the same compound, the VAP [4] was 99, the VCL [4] was 176 and the VSL [4] was 79. It also gave an ALH [5] of 6, a BCF [5] of 25 and an LIN [5] of 50. For the same compound, the Motile [5] was 63, the Prog [5] was 48 and the STR [5] was 83. The VAP [5] was 85, the VCL [5] was 145 and the VSL [5] was 70. It also gave an ALH [6] of 5, a BCF [6] of 24 and an LIN [6] of 56. It also gave a Motile [6] of 60, a Prog [6] of 56 and an STR [6] of 85. For the same compound, the VAP [6] was 94, the VCL [6] was 145 and the VSL [6] was 80. It also gave an ALH [7] of 6, a BCF [7] of 26 and an LIN [7] of 47. For the same compound, the Motile [7] was 71, the Prog [7] was 55 and the STR [7] was 81. The VAP [7] was 96, the VCL [7] was 169 and the VSL [7] was 77. It also gave an ALH [8] of 5, a BCF [8] of 21 and an LIN [8] of 50. It also gave a Motile [8] of 64, a Prog [8] of 38 and an STR [8] of 84. It also gave a VAP [8] of 69, a VCL [8] of 117 and a VSL [8] of 57. For the same compound, the ALH [9] was 6, the BCF [9] was 25 and the LIN [9] was 53. It also gave a Motile [9] of 60, a Prog [9] of 50 and an STR [9] of 84. It also gave a VAP [9] of 90, a VCL [9] of 144 and a VSL [9] of 75. For the same compound, the ALH [10] was 6, the BCF [10] was 17 and the LIN [10] was 39. The Motile [10] was 36, the Prog [10] was 7 and the STR [10] was 76. It also gave a VAP [10] of 44, a VCL [10] of 87 and a VSL [10] of 33. It also gave an ALH [11] of 7, a BCF [11] of 16 and an LIN [11] of 40. The Motile [11] was 58, the Prog [11] was 7 and the STR [11] was 76. For the same compound, the VAP [11] was 42, the VCL [11] was 80 and the VSL [11] was 32. For the same compound, the ALH [12] was 5, the BCF [12] was 22 and the LIN [12] was 48. It also gave a Motile [12] of 52, a Prog [12] of 22 and an STR [12] of 82. It also gave a VAP [12] of 55, a VCL [12] of 96 and a VSL [12] of 46. For the same compound, the ALH [13] was 6, the BCF [13] was 17 and the LIN [13] was 39. It also gave a Motile [13] of 36, a Prog [13] of 7 and an STR [13] of 76. It also gave a VAP [13] of 44, a VCL [13] of 87 and a VSL [13] of 33. It also gave an ALH [14] of 7, a BCF [14] of 16 and an LIN [14] of 40. For the same compound, the Motile [14] was 58, the Prog [14] was 7 and the STR [14] was 76. The VAP [14] was 42, the VCL [14] was 80 and the VSL [14] was 32. For the same compound, the ALH [15] was 5, the BCF [15] was 22 and the LIN [15] was 48. It also gave a Motile [15] of 52, a Prog [15] of 22 and an STR [15] of 82. The VAP [15] was 55, the VCL [15] was 96 and the VSL [15] was 46. It also gave an ALH [16] of 7, a BCF [16] of 24 and an LIN [16] of 48. The Motile [16] was 67, the Prog [16] was 51 and the STR [16] was 83. It also gave a VAP [16] of 83, a VCL [16] of 152 and a VSL [16] of 68. For the same compound, the ALH [17] was 6, the BCF [17] was 25 and the LIN [17] was 47. For the same compound, the Motile [17] was 57, the Prog [17] was 43 and the STR [17] was 82. The VAP [17] was 79, the VCL [17] was 146 and the VSL [17] was 63. The ALH [18] was 6, the BCF [18] was 27 and the LIN [18] was 56. For the same compound, the Motile [18] was 81, the Prog [18] was 66 and the STR [18] was 87. The VAP [18] was 81, the VCL [18] was 133 and the VSL [18] was 70. It also gave an ALH [19] of 5, a BCF [19] of 24 and an LIN [19] of 46. It also gave a Motile [19] of 33, a Prog [19] of 16 and an STR [19] of 79. It also gave a VAP [19] of 65, a VCL [19] of 117 and a VSL [19] of 49. For the same compound, the ALH [20] was 6, the BCF [20] was 25 and the LIN [20] was 45. The Motile [20] was 26, the Prog [20] was 10 and the STR [20] was 80. The VAP [20] was 59, the VCL [20] was 110 and the VSL [20] was 46. For the same compound, the ALH [21] was 6, the BCF [21] was 25 and the LIN [21] was 45. It also gave a Motile [21] of 59, a Prog [21] of 25 and an STR [21] of 78. For the same compound, the VAP [21] was 67, the VCL [21] was 66 and the VSL [21] was 50.
